Experimental data reported in patent US9320272B2, “Microbial composition” (Rohm and Haas Company, priority 2011, dated 2016).
Values joined by “and” are separate entries in the source; they are usually repeats but may differ in a detail not shown here. Identical values can stand only once.

Tests used:
[1] = tested on: Escherichia coli (E. coli - ATCC #10536); test: Synergy test: high resolution MBC microtiter plate assay in phosphate buffer containing 35% dipropylene glycol, 15 seconds contact; assay type: cell-based; settings: for QA: concentration of first component (A) acting alone which produced an end point (MBC of Compound A); Qa with Qb = 0 / QB: concentration of second component (B) acting alone which produced an end point (MBC of Compound B); Qb with Qa = 0: E. coli 10536, complete kill in 15 seconds, phosphate buffer with 35% DPG; for SI (Synergy Index = Qa/QA + Qb/QB): E. coli 10536, less than one = synergy, one = additivity, greater than one = antagonism
Source text: One measure of synergy is the industrially accepted method described by Kull, F. C.; Eisman, P. C.; Sylwestrowicz, M. D, and Mayer, R. L., in Applied Microbiology 9:538-541 (1961), using the ratio determined by the formula: Qa/QA+Qb/QB=Synergy Index (“SI”) wherein; QA=concentration of compound A (first component) in percent, acting alone, which produced an end point (MBC of Compound A), Qa=concentration of compound A in percent, in the mixture, which produced an end point. QB=concentration of compound B (second component) in percent, acting alone, which produced an end point (MBC of Compound B). Qb=concentration of compound B in percent, in the mixture, which produced an end point.
When the sum of Qa/QA and Qb/QB is greater than one, antagonism is indicated. […] The lower the SI, the greater is the synergy shown by that particular mixture. The minimum biocidal concentration (MBC) of a microbicide is the lowest concentration tested under a specific set of conditions that provides complete kill of the tested microorganisms.
Synergy tests were conducted using standard microliter plate assays with phosphate buffer containing 35% dipropylene glycol (DPG). In this method, a wide range of combinations of chemicals was tested by conducting high resolution. MBC assays of Component (A) in the presence of various concentrations of Component (B). High resolution MBCs were determined by adding varying amounts of microbicide to one column of a microliter plate and doing subsequent […] dilutions using an automated liquid handling system to obtain a series of closely spaced endpoints. The MBC plate was inoculated one column at a time with the test microorganism. An aliquot of the inoculated well was transferred at 15 seconds to a plate containing a neutralizing agent (EVE Neutralizing Broth), mixed and held for 5 minutes before being transferred to a growth plate containing trypticase soy broth (TSB). The TSB plate was incubated at 37° C. and read for the presence/absence of growth at 24 hours. The lowest level tested that provided complete kill (as evidenced by no growth in the microtitre plate) of the test organisms in 15 seconds is the minimum biocidal concentration (MBC).
The synergy of the combinations of the present invention was determined against a bacterium, Escherichia coli (E. coli—ATCC #10536), at a concentration of approximately 1×10^8 bacteria per mL. This microorganism is representative of natural contaminants in many consumer and industrial applications.

[2] = tested on: Escherichia coli (E. coli - ATCC #10536); test: Automated assessment of efficacy in surfactant base (2.85% sodium cocoyl glycinate + 1.85% sodium lauroamphoacetate, pH 10), 15 seconds exposure; assay type: cell-based; settings: for MBC (% w/v): in 2.85% sodium cocoyl glycinate + 1.85% sodium lauroamphoacetate solution at pH 10, E. coli, 15 seconds exposure; for No. of replicates showing growth (out of 4) / Δ OD 450 nm = OD450 (time zero) − OD450 (time = 16 hours), Mean / Δ OD 590 nm OD590 (time = 16 hours) − OD590 (time zero), Mean: model surfactant solution pH 10, 15 s exposure; for Δ OD 450 nm = OD450 (time zero) − OD450 (time = 16 hours), Mean / Δ OD 590 nm OD590 (time = 16 hours) − OD590 (time zero), Mean: 4 replicates
Description: In these examples, the efficacy of combinations of actives were tested in a surfactant cleansing formulation comprising 2.85% sodium cocoyl glycinate and 1.85% sodium lauroamphoacetate.
This corresponds to a 50% in use dilution with water of a neat formulation containing 5.7% cocoyl glycinate and 3.7% sodium lauroamphoacetate during hand washing.
Solutions were prepared such that the concentrations of the surfactant components and test actives were 1.1× the final desired concentration in order to allow for dilution with the bacterial inoculum in the test. The solutions were manually adjusted to pH 10.0 by dropwise addition of sodium hydroxide solution, as measured with a pH meter at ambient temperature.
The efficacy of the combinations of the present invention was determined against Escherichia coli (E. coli—ATCC #10536), at a concentration of approximately 1×10^8 bacteria per mL.
Tests were conducted using standard microliter plate assays using an automated liquid handling system. 270 μl of the surfactant test solution was pipetted into each well of the microtitre plate and 30 μl of the bacterial suspension was then added. After exactly 15 seconds of bacterial exposure, a 30 μl volume of bacterial cells was withdrawn and transferred to 270 μl of D/E quench solution. After 5 minutes in the D/E quench, the optical density (OD) was measured for each plate in turn at two specific wavelengths (450 nm and 590 nm). These provide a dual check of antimicrobial activity, as the OD450 reading is specific for the yellow colour of D/E quench when bacterial growth is observed, whereas OD590 is specific for the initial purple colour of the D/E quench which is retained if no bacterial growth is observed. After the time zero OD measurements, plates were then incubated at 37° C. overnight (16 hours) before repeating the OD measurements. Delta CD values were calculated by subtracting […] the initial value at time zero. Bacterial growth is observed as an increase in OD450 and a decrease in ΔOD590. To identify antibacterially efficacious systems (those preventing appreciable bacterial growth after incubation), the following threshold changes in OD readings have been adopted: if (1), OD450 increases by less than 0.2 absorbance unit on incubation and (2), OD590 decreases by less than 0.35 unit on incubation. Conversely, where OD450 increases by more than 0.2 AU and OD590 decreases by more than 0.35 unit after incubation, corresponding to a colour shift from purple to yellow, the test system allows bacterial growth and is not deemed efficacious. Four replicate measurements in the same plate have been made for each test system. The number of replicate wells showing either bacterial growth or no growth is also readily assessed by eye by following the colour change.
Dose responses for individual components and binary mixtures of actives at a fixed concentration ratio were generated by sequential dilution of liquors with further surfactant solution to obtain a series of endpoints.
In some selected cases, the combinations were also tested at the weight ratio 1.1.

Row | Compound | QA: concentration of first component (A) acting alone which produced an end point (MBC of Compound A); Qa with Qb = 0 [1] | SI (Synergy Index = Qa/QA + Qb/QB) [1] | MBC (% w/v) [2] | No. of replicates showing growth (out of 4) ([2]; single active at […] w/v) | Δ OD 590 nm OD590 (time = 16 hours) − OD590 (time zero), Mean ([2]; single active at […] w/v) | other results
1 | Oc1ccc(C2CCCC2)cc1 [4-cyclopentylphenol] | 0.2 weight % | 1.00 | >0.2 % w/v | – | – | –
2 | Oc1ccc(Cc2ccccc2)cc1 [4-hydroxydiphenylmethane] | 0.6 weight % and 0.5 weight % | 1.00 | >0.2 % w/v | 4 | 0.54 | No. of replicates showing growth (out of 4) ([2]; single active at 0.1% w/v): 4; Δ OD 450 nm = OD450 (time zero) − OD450 (time = 16 hours), Mean ([2]; single active at 0.1% w/v): −0.58; Δ OD 590 nm OD590 (time = 16 hours) − OD590 (time zero), Mean ([2]; single active at 0.1% w/v): 0.52; No. of replicates showing growth (out of 4) ([2]; single active at 0.2% w/v): 4; Δ OD 450 nm = OD450 (time zero) − OD450 (time = 16 hours), Mean ([2]; single active at 0.2% w/v): −0.52; Δ OD 590 nm OD590 (time = 16 hours) − OD590 (time zero), Mean ([2]; single active at 0.2% w/v): 0.61; Δ OD 450 nm = OD450 (time zero) − OD450 (time = 16 hours), Mean ([2]; single active at […] w/v): −0.55
3 | CC(C)(C)c1ccc(O)c(O)c1 [4-tert-butylbenzene-1,2-diol] | 0.8 weight % and 1.0 weight % | 1.00 | – | – | – | –
4 | Oc1cccc2c1CCCC2 [5,6,7,8-tetrahydronaphthalen-1-ol] | 0.6 weight % and 0.5 weight % | 1.00 | >0.2 % w/v | – | – | –
5 | Oc1ccc2c(c1)CCCC2 [5,6,7,8-tetrahydronaphthalen-2-ol] | 0.6 weight % and 0.3 weight % and 0.5 weight % | 1.00 | >0.2 % w/v | 4 | 0.30 | Δ OD 450 nm = OD450 (time zero) − OD450 (time = 16 hours), Mean ([2]; single active at […] w/v): −1.59
6 | CC(C)=CCC/C(C)=C/CO [(E)-3,7-dimethylocta-2,6-dien-1-ol] | – | – | >0.5 % w/v | 4 | – | QB: concentration of second component (B) acting alone which produced an end point (MBC of Compound B); Qb with Qa = 0 [1]: 0.3 weight % and 0.2 weight %; No. of replicates showing growth (out of 4) ([2]; single active at 0.3% w/v): 4; Δ OD 450 nm = OD450 (time zero) − OD450 (time = 16 hours), Mean ([2]; single active at 0.3% w/v): −0.51; Δ OD 590 nm OD590 (time = 16 hours) − OD590 (time zero), Mean ([2]; single active at 0.3% w/v): 0.59; No. of replicates showing growth (out of 4) ([2]; single active at 0.5% w/v): 4; Δ OD 450 nm = OD450 (time zero) − OD450 (time = 16 hours), Mean ([2]; single active at 0.5% w/v): −0.45; Δ OD 590 nm OD590 (time = 16 hours) − OD590 (time zero), Mean ([2]; single active at 0.5% w/v): 0.62
7 | CC(C)=CCC/C(C)=C\CO [cis-3,7-dimethyl-2,6-octadien-1-ol] | – | – | >0.5 % w/v | 4 | 0.61 | QB: concentration of second component (B) acting alone which produced an end point (MBC of Compound B); Qb with Qa = 0 [1]: 0.5 weight % and 0.25 weight %; Δ OD 450 nm = OD450 (time zero) − OD450 (time = 16 hours), Mean ([2]; single active at 0.2% w/v): −0.53; Δ OD 590 nm OD590 (time = 16 hours) − OD590 (time zero), Mean ([2]; single active at 0.2% w/v): 0.60; Δ OD 450 nm = OD450 (time zero) − OD450 (time = 16 hours), Mean ([2]; single active at 0.5% w/v): −0.14; Δ OD 590 nm OD590 (time = 16 hours) − OD590 (time zero), Mean ([2]; single active at 0.5% w/v): 0.40
